Test results published in patent US20040266862A1, “Method of improving animal tissue quality by supplementing the animal diet with mixed tocotrienols” (priority 2003, published 2004).
Marks after values point to notes of the source that are not given here.

Legend:
Assay type in all cases: in vivo
swine [1] = experiment: 2002 swine feed test: fat and TBARS content of raw ground pork
From the text: Applicants conducted a second swine feeding trial to further determine the effects on meat quality of supplementation of a swine diet with alpha-tocopherol (AT), gamma-tocopherol (GT) or mixed tocotrienols (MT). Seventy-two barrows (˜75 lbs.) were transported to the Pioneer Livestock Nutrition Center (PLNC) and randomly placed into individual pens with water and feed provided ad libitum. The pigs received a common diet for seven days. On the eighth day the pigs were weighed individually and a uniform group of sixty pigs with an average body weight of about 75 pounds was selected. The pigs were randomly assigned one of five dietary treatments with 12 pigs per treatment. The feeding trial was initiated on Mar. 12, 2002 and ended on Jun. 19, 2002. The pigs were fed a corn-soybean meal diet formulated to provide adequate levels of all nutrients. In addition, one of five dietary treatments was assigned to each group: control, 300 ppm AT, 450 ppm GT, 150 ppm MT, and 300 ppm MT. To each diet a corn oil premix and a ground corn premix were added with the corn oil premix as a carrier for the supplemental tocopherols and the ground corn premix as the carrier for the MT. The MT supplement was obtained commercially from Fuji Chemical Industries (U.S.A.) Inc. of Robbinsville, N.J., and contained 7.5% alpha-, 12.3% gamma- and 3.0% delta-tocotrienol, as well as 7.2% alpha-tocopherol. Trimmed bellies were collected to measure the effects of dietary treatments on ground pork oxidation rate. The bellies were ground through a meat grinder and mixed. Four one-pound samples of each ground belly were placed on a retail meat tray and covered with oxygen permeable film. On each of days 1, 7, 10 and 16 post-grinding, one of the trays was opened and a sample submitted for TBARS (thiobarbituric acid reactive substances) determination, a measure of the extent of oxidation.

chickens [2] = experiment: 2002 poultry feed test: TBARS content of raw ground chicken thighs; conditions: 300 ppm in diet
From the text: (§1) Applicants also assessed the effects of antioxidant supplementation on meat quality in an experiment in which meat from chickens fed one of four dietary treatments was compared. On Jul. 25, 2002, day-old chicks were obtained from a commercial company. The birds were housed in a brooder until Aug. 11, 2002. On Aug. 11, forty-eight birds were randomly allocated to one of four pens (twelve birds per pen). Birds in each pen were offered ad libitum access to one of four treatment diets: control, 300 ppm AT, 300 ppm GT or 150 ppm MT. The MT premix contained a commercially available MT supplement (7.5% alpha-, 12.3% gamma- and 3.0% delta-tocotrienol and 7.2% alpha-tocopherol) mixed with ground corn as the carrier. The total MT premix (ground corn plus MT supplement) represented 2.5% w/w of the finished MT supplemented feed.
(§2) On Sep. 13, 2002 (seven weeks of age) the birds were harvested, identified and frozen at −20C. The birds were stored frozen at −20C for 136-159 days post slaughter. On days 136, 156, 157, 158 and 159 (where available) two birds per dietary treatment were thawed in cold water. Meat was removed from the breasts (pectoralis major muscles) and thighs. Breast meat from each chicken was ground through a 3 mm disc in a Krups Butcher Shop 150W Professional Power Meat Grinder. Thigh meat from two chickens was combined (for days 156, 157, 158 and 159; day 136 thigh meat was kept separate for each bird) and ground in a similar manner. Patties were made (10 g for breast; 60 g for thighs) using a 100×15 mm Petri dish as a mold.
Patties were quartered and each quarter was stored at 2.2C for a designated period of time. One quarter was used per sampling period. Sampling periods for the raw ground meat were day 0, day 3, day 7 and day 10. Thiobarbituric acid reacting substances (TBARS) analyses was performed on the raw ground chicken breasts and thighs according to the procedure of Ahn, D. U., D. G. Olson, C. Jo, X. Chen, C. Wu, and J. I. Lee, “Effect of Muscle Type, Packaging, and Irradiation on Lipid Oxidation, Volatile Production and Color in Raw Pork Patties”, Meat Sci. 49:27-39 (1998).

chickens [3] = experiment: 2002 poultry feed test: TBARS content of cooked ground chicken thighs; conditions: 300 ppm in diet
From the text: as §1, §2
Raw ground chicken breast and thigh patties were cooked in a pre-warmed George Foreman grill for five minutes per breast patty and four minutes per thigh patty. Cooked patties were allowed to cool under refrigeration and then quartered (day 136) or halved (days 156, 157, 158 and 159). Each quarter or half was stored at 2.2C in zip lock baggies for a designated period of time. One quarter was used per sampling period. Sampling periods were 0 hours, 4 hours, 26 hours and 48 hours. Thiobarbituric acid reacting substances (TBARS) analyses was performed according to Ahn et al., and the results are shown in the following two tables.

swine [4] = experiment: 2002 swine feed test: 24 hour raw pork loin quality

Row | SMILES | TBARS content (swine [1]; Day 1 post-grinding, 450 ppm in diet) | TBARS content (swine [1]; Day 7 post-grinding, 450 ppm in diet) | TBARS content (swine [1]; Day 10 post-grinding, 450 ppm in diet) | TBARS content (swine [1]; Day 16 post-grinding, 450 ppm in diet) | TBARS content (chickens [2]; Day 0 at 2.2C) | TBARS content (chickens [2]; Day 3 at 2.2C) | TBARS content (chickens [2]; Day 7 at 2.2C) | TBARS content (chickens [2]; Day 10 at 2.2C) | TBARS content (chickens [3]; 0 hours at 2.2C) | TBARS content (chickens [3]; 4 hours at 2.2C) | TBARS content (chickens [3]; 26 hours at 2.2C) | TBARS content (chickens [3]; 48 hours at 2.2C) | PH, hour 22 (swine [4]; 450 ppm in diet) | TBARS content (swine [1]; Day 1 post-grinding, 300 ppm in diet) | TBARS content (swine [1]; Day 7 post-grinding, 300 ppm in diet) | TBARS content (swine [1]; Day 10 post-grinding, 300 ppm in diet) | TBARS content (swine [1]; Day 16 post-grinding, 300 ppm in diet) | PH, hour 22 (swine [4]; 300 ppm in diet)
1 | Cc1c(O)cc2c(c1C)O[C@](C)(CCC[C@H](C)CCC[C@H](C)CCCC(C)C)CC2 [GT, gamma-tocopherol] | 0.19 mg Malonaldehyde/kg sample | 0.17 mg Malonaldehyde/kg sample | 0.32 mg Malonaldehyde/kg sample | 1.01^b mg Malonaldehyde/kg sample | 0.2493 mg Malonaldehyde/kg sample | 0.2010 mg Malonaldehyde/kg sample | 0.1626 mg Malonaldehyde/kg sample | 0.3557 mg Malonaldehyde/kg sample | 0.4839^b mg Malonaldehyde/kg sample | 0.6715^d mg Malonaldehyde/kg sample | 1.2515^d mg Malonaldehyde/kg sample | 1.6312^d mg Malonaldehyde/kg sample | 5.76 | – | – | – | – | –
2 | Cc1c(C)c2c(c(C)c1O)CC[C@@](C)(CCC[C@H](C)CCC[C@H](C)CCCC(C)C)O2 [AT, alpha-tocopherol] | – | – | – | – | 0.3438 mg Malonaldehyde/kg sample | 0.1810 mg Malonaldehyde/kg sample | 0.2448 mg Malonaldehyde/kg sample | 0.4482 mg Malonaldehyde/kg sample | 0.4568^b mg Malonaldehyde/kg sample | 0.8954^d mg Malonaldehyde/kg sample | 0.8968^d mg Malonaldehyde/kg sample | 1.1669^d mg Malonaldehyde/kg sample | – | 0.13 mg Malonaldehyde/kg sample | 0.18 mg Malonaldehyde/kg sample | 0.34 mg Malonaldehyde/kg sample | 1.46^ab mg Malonaldehyde/kg sample | 5.86
